From the supplement of paper PMC10307832

Tests used:
Assay in all cases: relative viability (nuclei count vs DMSO), 5 days (fraction); higher = more cells survive
[1] = compound: C1/C(=C\C2=CC=CS2)/C(=O)/C(=C/C3=CC=CS3)/C1 + Nc1ncn([C@H]2C[C@H](O)[C@@H](CO)O2)c(=O)n1 [Decitabine] (partner 2 µM)
Outline: (§1)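 Relative viability equals treated-well nuclei counts divided by vehicle-well nuclei counts. Counts came from 4× images of lung cancer cell lines grown in 1536-well plates for 5 days after pin-tool dosing on the day after seeding. Dosing used one drug alone or a fixed anchor-drug dose plus five library-drug doses (not always all listed) in √10 steps, and values are medians of duplicate plates.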

[2] = compound: C[C@]12O[C@H](C[C@]1(O)CO)n1c3ccccc3c3c4c(c5c6ccccc6n2c5c31)CNC4=O [Lestaurtinib] + C[C@@H](Oc1cc(-c2cnn(C3CCNCC3)c2)cnc1N)c1c(Cl)ccc(F)c1Cl [Crizotinib] (partner 1 µM)
Outline: as §1

TPCA-1 + Olaparib = compound: C1=CC(=CC=C1C2=CC(=C(S2)NC(=O)N)C(=O)N)F [TPCA-1] + O=C(c1cc(Cc2n[nH]c(=O)c3ccccc23)ccc1F)N1CCN(C(=O)C2CC2)CC1 [Olaparib] (partner 8 µM)
Outline: as §1

[3] = compound: C[C@]12O[C@H](C[C@]1(O)CO)n1c3ccccc3c3c4c(c5c6ccccc6n2c5c31)CNC4=O [Lestaurtinib] + C[C@]1(O)C[C@@H](c2nc(-c3ccc4ccc(-c5ccccc5)nc4c3)c3c(N)nccn32)C1 [Linsitinib] (partner 1 µM)
Outline: as §1

Row | Cell Line | relative viability ([1]; first compound 0.2 µM) | relative viability ([1]; first compound 0.6325 µM) | relative viability ([1]; first compound 2 µM) | relative viability ([1]; first compound 6.325 µM) | relative viability ([1]; first compound 20 µM) | relative viability ([2]; first compound 0.005 µM) | relative viability ([2]; first compound 0.01581 µM) | relative viability ([2]; first compound 0.05 µM) | relative viability ([2]; first compound 0.1581 µM) | relative viability ([2]; first compound 0.5 µM) | relative viability (TPCA-1 + Olaparib; first compound 0.04 µM) | relative viability (TPCA-1 + Olaparib; first compound 0.1265 µM) | relative viability (TPCA-1 + Olaparib; first compound 0.4 µM) | relative viability (TPCA-1 + Olaparib; first compound 1.265 µM) | relative viability (TPCA-1 + Olaparib; first compound 4 µM) | relative viability ([3]; first compound 0.005 µM) | relative viability ([3]; first compound 0.01581 µM) | relative viability ([3]; first compound 0.05 µM) | relative viability ([3]; first compound 0.1581 µM) | relative viability ([3]; first compound 0.5 µM)
1 | 201T | 0.862 | 0.87 | 0.826 | 0.843 | 0.811 | 1.09 | 1.03 | 1.08 | 1.08 | 0.903 | 0.857 | 0.827 | 0.841 | 0.83 | 0.87 | 1.03 | 0.987 | 0.992 | 0.926 | 0.937
2 | A549 | 0.281 | 0.295 | 0.237 | 0.384 | 0.229 | 0.77 | 0.771 | 0.227 | 0.183 | 0.0593 | 0.342 | 0.313 | 0.507 | 0.201 | 0.0946 | 0.621 | 0.596 | 0.229 | 0.148 | 0.174
3 | A-427 | 0.592 | 0.586 | 0.586 | 0.519 | 0.583 | 0.999 | 0.842 | 0.501 | 0.411 | 0.125 | 0.818 | 0.686 | 0.778 | 0.777 | 0.65 | 1.17 | 1.12 | 1.01 | 0.631 | 0.658
4 | ABC-1 | 1.22 | 1 | 1.2 | 0.87 | 0.972 | 1.15 | 1.58 | 0.92 | 0.882 | 0.26 | 1.43 | 0.676 | 0.97 | 0.789 | 0.788 | 0.834 | 0.993 | 0.603 | 0.536 | 0.165
5 | BEN | 0.666 | 0.724 | 0.893 | 0.643 | 0.644 | 0.902 | 1.1 | 0.879 | 0.687 | 0.29 | 1.08 | 0.977 | 1.32 | 1.04 | 0.869 | 0.949 | 1.09 | 0.747 | 0.778 | 0.321
6 | CAL-12T |  |  |  |  |  | 0.555 | 0.747 | 0.409 | 0.487 | 0.272 | 0.621 | 0.734 | 0.732 | 0.638 | 0.753 | 0.805 | 0.84 | 0.774 | 0.565 | 0.416
7 | COR-L23 | 0.427 | 0.411 | 0.488 | 0.472 | 0.417 | 0.707 | 0.763 |  | 0.489 | 0.161 | 0.393 | 0.329 | 0.286 | 0.303 | 0.325 | 1 | 0.858 |  | 0.471 | 0.153
8 | COR-L 105 | 0.526 | 0.668 | 0.699 | 0.444 | 0.7 | 0.703 | 1.02 | 0.684 | 0.618 | 0.233 | 0.712 | 0.7 | 0.665 | 0.752 | 0.697 | 1.11 | 0.873 | 0.692 | 0.502 | 0.337
9 | Calu-6 |  |  |  |  |  | 0.753 | 0.784 | 0.282 | 0.293 | 0.16 | 0.671 | 0.57 | 0.553 | 0.539 | 0.511 | 0.908 |  | 0.555 | 0.262 | 0.218
10 | ChaGo-K-1 | 0.528 | 0.394 | 0.494 | 0.436 | 0.242 | 1.25 | 1.33 | 0.855 | 0.778 | 0.381 | 0.434 | 0.321 | 0.445 | 0.374 | 0.221 |  |  |  |  | 
11 | EBC-1 |  |  |  |  |  | 0.182 | 0.225 | 0.183 | 0.184 | 0.175 | 0.759 | 0.606 | 0.784 | 0.727 | 0.715 | 0.856 | 0.999 | 0.585 | 0.633 | 0.432
12 | EKVX | 0.359 | 0.267 | 0.406 |  | 0.452 | 0.855 | 1.11 | 0.945 | 0.892 | 0.551 | 0.963 |  | 0.837 | 0.568 | 0.727 | 1.03 | 1.13 | 0.949 | 1.08 | 0.552
13 | EMC-BAC-2 | 1 | 0.968 | 1.03 | 0.909 | 0.924 | 0.722 | 0.76 | 0.599 | 0.569 | 0.264 | 0.486 | 0.461 | 0.572 | 0.355 | 0.245 | 0.764 | 0.801 | 0.641 | 0.45 | 0.221
14 | EPLC-272H | 0.379 | 0.349 | 0.446 | 0.282 | 0.339 | 0.939 | 0.65 | 0.458 | 0.574 | 0.581 | 0.992 | 0.709 | 0.839 | 0.455 | 0.372 | 1.13 | 1.05 | 0.517 | 0.54 | 0.577
15 | H3255 | 0.81 | 0.538 | 0.527 | 0.55 | 0.494 | 0.879 | 0.988 | 0.825 | 0.649 | 0.461 | 0.577 | 0.542 | 0.536 | 0.527 | 0.507 | 0.986 | 1.07 | 0.864 | 0.668 | 0.457
16 | HARA | 0.755 | 0.571 | 0.558 | 0.529 | 0.595 | 1.19 | 1.21 | 0.86 | 0.994 | 0.162 | 0.884 | 0.765 | 1.09 | 0.742 | 0.656 | 1.02 | 1.09 | 0.648 | 0.453 | 0.198
17 | HCC-15 | 0.677 | 0.688 | 0.661 | 0.619 | 0.609 | 1.04 | 1.01 | 0.595 | 0.628 | 0.291 | 0.798 | 0.686 | 0.773 | 0.67 | 0.594 | 0.98 | 0.958 | 0.71 | 0.529 | 0.159
